System: human skin
Assay: Cumulative skin irritation patch test (safety to the human skin)
Assay type: in vivo
Conditions: 30 adults; for Number of subjects showing response ±: 1st week
Description: In order to identify as to whether the Cirsium japonicum extract is safe or not, a test for identifying the safety to the human skin was performed. For this, a cumulative skin irritation was carried out. A nutritious cream containing 0.1%, 0.5% and 1% of Cirsium japonicum extracts of Example 1, respectively, was prepared. Specifically, purified water, triethanolamine, and propylene glycol were heated and dissolved at a temperature of 70° C. (aqueous phase). Beeswax, liquid paraffin, oily ingredients, emulsifiers and preservatives were heated and dissolved at a temperature of 70° C. (oil phase). The oil phase was added to the aqueous phase to prepare an emulsion. After emulsification was completed, the solution was cooled to 45° C., and Cirsium japonicum extracts were added 0.1%, 0.5% and 1% respectively, dispersed and then cooled to 30° C. As the content of the Cirsium japonicum extract was increased to 0.1%, 0.5% and 1%, the nutritional cream was prepared by reducing the content of the liquid paraffin to 9.91%, 9.51% and 9.01%, respectively. The nourishing cream prepared as described above was applied as a patch to areas of humerus of 30 adults for accumulated 24 hours on alternate day in total 9 times to test as to whether the Cirsium japonicum extract stimulates the skin. The patch used Finn chamber ([…]) and the patch was practiced after dropping with […] of the skin external preparations prepared from the above, respectively. The degree of the reaction represented on the skin in every time was scored by using the below experimental formula 1. Mean reaction degree=[{(reaction index×reaction degree)/(total number of the subject×the highest score (four point))}×100]/times of the test (9times) [Experimental Formula 1] In regard to the response degree, 1 point was provided for ±, 2 points for +, and 4 points for ++. When the mean reaction degree is less than 3, it is considered as being the safe composition.

CC(C)=CCC/C(C)=C/CC/C(C)=C/CC/C=C(\C)CC/C=C(\C)CCC=C(C)C [Control group (Squalene), Squalene]
Number of subjects showing response ± (1st application): 1 | Number of subjects showing response ± (2nd application): 0 | Average response degree (24 h patch on alternate days, 9 times, less than 3 = safe): 0.09
